# Test results reported in ChEMBL document CHEMBL1201862, “PubChem BioAssay data set” (2004).
#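 Cultured in 96-well plates, cells were exposed to test compound for 48 hours across five concentrations. Here, GI50 denotes the concentration required for 50% inhibition of growth.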 Calls of active or inactive are those of the source. Rule as the data show it: active = GI50 up to about 1.1 µM and inactive = higher.
# Columns and labels:
# Test in all cases: NCI anticancer screen, dose series, 48 h
# ACHN = system: ACHN
# TK-10 = system: TK-10
# COLO 205 = system: COLO 205
# HCC 2998 = system: HCC 2998
# A549 = system: A549
# HT-29 = system: HT-29
# SK-MEL-28 = system: SK-MEL-28
# MDA-MB-435 = system: MDA-MB-435
# CCRF-CEM = system: CCRF-CEM
# DU-145 = system: DU-145
# SF-539 = system: SF-539
# NCI-H226 = system: NCI-H226
# SNB-75 = system: SNB-75
# Hs-578T = system: Hs-578T
# MDA-N = system: MDA-N
# CAKI-1 = system: CAKI-1
# LOX IMVI = system: LOX IMVI
# SR = system: SR
# MCF7 = system: MCF7
# OVCAR-5 = system: OVCAR-5
SMILES,GI50 (ACHN),GI50 (TK-10),GI50 (COLO 205),GI50 (HCC 2998),GI50 (A549),GI50 (HT-29),GI50 (SK-MEL-28),GI50 (MDA-MB-435),GI50 (CCRF-CEM),GI50 (DU-145),GI50 (SF-539),GI50 (NCI-H226),GI50 (SNB-75),GI50 (Hs-578T),GI50 (MDA-N),GI50 (CAKI-1),GI50 (LOX IMVI),GI50 (SR),GI50 (MCF7),GI50 (OVCAR-5)
CCCCOCCOC1=CC(=O)c2c(O)ccc(O)c2C1=O,1.72 µM (inactive),3.1 µM (inactive),1.14 µM (inactive),1.88 µM (inactive),1.75 µM (inactive),1.67 µM (inactive),1.62 µM (inactive),0.185 µM (active),1.22 µM (inactive),1.78 µM (inactive),1.58 µM (inactive),1.72 µM (inactive),1.57 µM (inactive),2.22 µM (inactive),0.185 µM (active),1.78 µM (inactive),1.73 µM (inactive),1.24 µM (inactive),1.31 µM (inactive),
COC(=O)c1c(OC(C)=O)ccc2c1c1c(OC(C)=O)c3ccccc3c(OC(C)=O)c1n2Cc1ccccc1,11.8 µM (inactive),13 µM (inactive),7.91 µM (inactive),1.85 µM (inactive),2.75 µM (inactive),12.2 µM (inactive),9.77 µM (inactive),9.95 µM (inactive),6.68 µM (inactive),11.1 µM (inactive),1.61 µM (inactive),10.9 µM (inactive),1.76 µM (inactive),16.9 µM (inactive),14.2 µM (inactive),9.62 µM (inactive),,1.64 µM (inactive),13.5 µM (inactive),7.46 µM (inactive)
C=CCNC(=S)N/C=C(\C#N)C(N)=O,> 100 µM (inactive),,> 100 µM (inactive),> 100 µM (inactive),> 100 µM (inactive),> 100 µM (inactive),> 100 µM (inactive),> 100 µM (inactive),> 100 µM (inactive),> 100 µM (inactive),> 100 µM (inactive),> 100 µM (inactive),> 100 µM (inactive),> 100 µM (inactive),> 100 µM (inactive),> 100 µM (inactive),> 100 µM (inactive),> 100 µM (inactive),> 100 µM (inactive),> 100 µM (inactive)
CSc1nc(=O)cnn1C,> 100 µM (inactive),> 100 µM (inactive),> 100 µM (inactive),> 100 µM (inactive),> 100 µM (inactive),> 100 µM (inactive),> 100 µM (inactive),> 100 µM (inactive),> 100 µM (inactive),> 100 µM (inactive),,> 100 µM (inactive),> 100 µM (inactive),> 100 µM (inactive),> 100 µM (inactive),> 100 µM (inactive),,> 100 µM (inactive),> 100 µM (inactive),> 100 µM (inactive)
COC(=O)/N=[N+](\[O-])C(c1ccc(Cl)cc1)c1ccc(Cl)cc1,,36.1 µM (inactive),23.9 µM (inactive),32 µM (inactive),40.1 µM (inactive),51.6 µM (inactive),50.4 µM (inactive),38.1 µM (inactive),28.4 µM (inactive),29.1 µM (inactive),65.3 µM (inactive),21.9 µM (inactive),27.9 µM (inactive),36.4 µM (inactive),47.5 µM (inactive),10.1 µM (inactive),15.7 µM (inactive),42 µM (inactive),33.9 µM (inactive),80.9 µM (inactive)
CC(=O)O[C@H]1C(=O)[C@@]2(C)[C@H]([C@H](OC(=O)c3ccccc3)[C@]3(O)C[C@H](OC(=O)[C@H](O)[C@@H](NC(=O)CC(C)C)c4ccccc4)C(C)=C1C3(C)C)[C@]1(OC(C)=O)CO[C@@H]1C[C@@H]2O,0.157 µM (active),0.0383 µM (active),0.00178 µM (active),0.00303 µM (active),0.00637 µM (active),< 0.001 µM (active),0.00318 µM (active),< 0.001 µM (active),0.00198 µM (active),0.0232 µM (active),0.00204 µM (active),0.038 µM (active),< 0.001 µM (active),0.0018 µM (active),0.0906 µM (active),0.378 µM (active),0.00619 µM (active),0.00171 µM (active),< 0.001 µM (active),0.226 µM (active)
O=C1OC(C2OC(=O)c3cc(O)c(O)c(O)c3-c3c(O)c(O)c4oc(=O)c5c(c(O)c(O)c6oc(=O)c3c4c65)-c3c(cc(O)c(O)c3O)C(=O)OCC2O)C2OC(=O)c3c(c(O)c(O)c(O)c3[C@H]2O)-c2c1cc(O)c(O)c2O (some centres not stated),24.7 µM (inactive),,14.8 µM (inactive),43.6 µM (inactive),20.2 µM (inactive),13.3 µM (inactive),98.2 µM (inactive),14 µM (inactive),10.9 µM (inactive),30.3 µM (inactive),,16.8 µM (inactive),16.9 µM (inactive),38.6 µM (inactive),21.2 µM (inactive),10.3 µM (inactive),11.5 µM (inactive),15 µM (inactive),6.05 µM (inactive),19.7 µM (inactive)
